Source: PubChem BioAssay AID330 (DTP/NCI, 2004)
Where “and” joins values, the source holds several entries; their conditions need not be identical. Equal entries are not always repeated. Toxic doses and inconclusive results are not listed.

System: P388 leukemia ip, CD2F1 mice, survival T/C
Test: NCI In Vivo Anticancer Drug Screen. Data for tumor model P388 Leukemia (intraperitoneal) in CD2F1 (CDF1) mice
Conditions: endpoint: median survival time, higher = longer survival
Summary of the method: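 Mice carrying the transplanted tumor received test compound or vehicle. Survival was recorded in each group, and the value is the treated-group measurement divided by that of the vehicle-treated control group.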

[1] = dose: 25.0 mg/kg/injection, schedule: Q01DX005 (ip), vehicle: saline with Tween-80
[2] = dose: 50.0 mg/kg/injection, schedule: Q01DX005 (ip), vehicle: saline with Tween-80
[3] = dose: 50.0 mg/kg/injection, schedule: Q01DX009 (ip), vehicle: Klucel (hydroxypropylcellulose) (HPC)
[4] = dose: 100.0 mg/kg/injection, schedule: Q01DX009 (ip), vehicle: Klucel (hydroxypropylcellulose) (HPC)
[5] = dose: 200.0 mg/kg/injection, schedule: Q01DX009 (ip), vehicle: Klucel (hydroxypropylcellulose) (HPC)
[6] = dose: 100.0 mg/kg/injection, schedule: Q01DX001 (ip), vehicle: saline
[7] = dose: 200.0 mg/kg/injection, schedule: Q01DX001 (ip), vehicle: saline
[8] = dose: 400.0 mg/kg/injection, schedule: Q01DX001 (ip), vehicle: saline
[9] = dose: 50.0 mg/kg/injection, schedule: Q01DX009 (ip), vehicle: saline
[10] = dose: 100.0 mg/kg/injection, schedule: Q01DX009 (ip), vehicle: saline
[11] = dose: 200.0 mg/kg/injection, schedule: Q01DX009 (ip), vehicle: saline
[12] = dose: 50.0 mg/kg/injection, schedule: Q01DX009 (ip), vehicle: saline with Tween-80
[13] = dose: 100.0 mg/kg/injection, schedule: Q01DX009 (ip), vehicle: saline with Tween-80
[14] = dose: 200.0 mg/kg/injection, schedule: Q01DX009 (ip), vehicle: saline with Tween-80
[15] = dose: 60.0 mg/kg/injection, schedule: Q01DX005 (ip), vehicle: Klucel (hydroxypropylcellulose) (HPC)
[16] = dose: 120.0 mg/kg/injection, schedule: Q01DX005 (ip), vehicle: Klucel (hydroxypropylcellulose) (HPC)
[17] = dose: 240.0 mg/kg/injection, schedule: Q01DX005 (ip), vehicle: Klucel (hydroxypropylcellulose) (HPC)
[18] = dose: 100.0 mg/kg/injection, schedule: Q04DX003 (ip), vehicle: saline with Tween-80
[19] = dose: 200.0 mg/kg/injection, schedule: Q04DX003 (ip), vehicle: saline with Tween-80
[20] = dose: 400.0 mg/kg/injection, schedule: Q04DX003 (ip), vehicle: saline with Tween-80

COSc1cccc(C(F)(F)F)c1
T/C (dose: 100.0 mg/kg/injection, schedule: Q04DX003 (ip), vehicle: saline): 100 % of control | T/C (dose: 200.0 mg/kg/injection, schedule: Q04DX003 (ip), vehicle: saline): 100 % of control | T/C (dose: 400.0 mg/kg/injection, schedule: Q04DX003 (ip), vehicle: saline): 97 % of control

COc1cccc2c1C(=O)c1c(O)c3c(c(O)c1C2=O)CC(O)(C(=O)COC(C)=O)CC3OC1CC(NC(C)=O)C(O)C(C)O1 (stereo unspecified)
T/C (dose: 0.78 mg/kg/injection, schedule: Q01DX009 (ip), vehicle: other): 122 % of control | T/C (dose: 3.13 mg/kg/injection, schedule: Q01DX009 (ip), vehicle: other): 120 % of control

CCc1ccc2c(c1OCOC)CCC2
T/C (dose: 100.0 mg/kg/injection, schedule: Q04DX002 (ip), vehicle: saline with Tween-80): 100 % of control | T/C (dose: 200.0 mg/kg/injection, schedule: Q04DX002 (ip), vehicle: saline with Tween-80): 100 % of control | T/C (dose: 400.0 mg/kg/injection, schedule: Q04DX002 (ip), vehicle: saline with Tween-80): 95 % of control

NC(CSC(c1ccccc1)(c1ccccc1)c1ccccc1)C(=O)NCC(=O)O (stereo unspecified)
T/C (dose: 600.0 mg/kg/injection, schedule: Q01DX009 (ip), vehicle: saline with Tween-80): 122 % of control

Nc1nc(=S)c2ncn(C3OC(CO)C(O)C3O)c2[nH]1 (stereo unspecified)
T/C (dose: 2.0 mg/kg/injection, schedule: Q01DX010 (ip), vehicle: saline): 168 % of control | T/C (dose: 8.0 mg/kg/injection, schedule: Q01DX010 (ip), vehicle: saline): 118 % of control | T/C [1]: 104 % of control | T/C [2]: 120 % of control | T/C (dose: 100.0 mg/kg/injection, schedule: Q04DX003 (ip), vehicle: saline sonified): 122 % of control | T/C (dose: 132.0 mg/kg/injection, schedule: Q04DX003 (ip), vehicle: saline with Tween-80): 117 % of control | T/C (dose: 200.0 mg/kg/injection, schedule: Q01DX005 (ip), vehicle: saline with Tween-80): 150 % of control and 158 % of control | T/C (dose: 400.0 mg/kg/injection, schedule: Q04DX003 (ip), vehicle: saline sonified): 86 % of control

Cc1s/c(=N/N=C2\C(=O)C=Cc3ccccc32)n(O)c1C
T/C [3]: 99 % of control | T/C [4]: 108 % of control | T/C [5]: 111 % of control

O=C(CCCc1ccccc1)N1CCOCC1
T/C (dose: 50.0 mg/kg/injection, schedule: Q01DX001 (ip), vehicle: saline sonified): 90 % of control | T/C (dose: 100.0 mg/kg/injection, schedule: Q01DX001 (ip), vehicle: saline sonified): 109 % of control | T/C (dose: 200.0 mg/kg/injection, schedule: Q01DX001 (ip), vehicle: saline sonified): 100 % of control

C/C(=N/NC(=O)c1ccccc1)C(=NO)/C(C)=N\NC(=O)c1ccccc1
T/C [6]: 100 % of control | T/C [7]: 97 % of control | T/C [8]: 100 % of control

CCCCCCCCCCCCSSSCCCCCCCCCCCC
T/C [9]: 106 % of control | T/C [10]: 97 % of control | T/C [11]: 99 % of control and 87 % of control

CC(C)CC(NC(=O)OC(C)(C)C)C(=O)NC(Cc1c[nH]c2ccccc12)C(=O)NN (stereo unspecified)
T/C (dose: 25.0 mg/kg/injection, schedule: Q01DX009 (ip), vehicle: saline): 87 % of control | T/C [9]: 94 % of control | T/C [10]: 92 % of control | T/C [11]: 92 % of control

COc1cccc2c1C(=O)c1c(O)c3c(c(O)c1C2=O)C[C@@](O)(C(=O)COS(=O)(=O)c1ccc(C)cc1)C[C@@H]3OC1CC(N)C(O)C(C)O1 (stereo partly specified)
T/C (dose: 0.78 mg/kg/injection, schedule: Q01DX009 (ip), vehicle: water): 164 % of control | T/C (dose: 1.56 mg/kg/injection, schedule: Q01DX009 (ip), vehicle: water): 161 % of control | T/C (dose: 3.13 mg/kg/injection, schedule: Q01DX009 (ip), vehicle: water): 158 % of control and 161 % of control | T/C (dose: 6.25 mg/kg/injection, schedule: Q01DX009 (ip), vehicle: water): 155 % of control and 180 % of control | T/C (dose: 12.5 mg/kg/injection, schedule: Q01DX009 (ip), vehicle: water): 89 % of control

O=C1[N-]C(=S)c2cccn21.O=C1[N-]C(=S)c2cccn21.[Pt+2]
T/C (dose: 6.25 mg/kg/injection, schedule: Q01DX005 (ip), vehicle: saline with Tween-80): 104 % of control | T/C (dose: 12.5 mg/kg/injection, schedule: Q01DX005 (ip), vehicle: saline with Tween-80): 107 % of control | T/C [1]: 105 % of control | T/C [2]: 105 % of control

CC(=O)Nc1nc(C(C)(C)C)c([N+](=O)[O-])s1
T/C [12]: 95 % of control | T/C [13]: 104 % of control | T/C [14]: 95 % of control

COc1ccc2cc3n(c(=N)c2c1OC)CCc1cc2c(cc1-3)OCO2
T/C (dose: 0.63 mg/kg/injection, schedule: Q01DX009 (ip), vehicle: water): 101 % of control | T/C (dose: 1.25 mg/kg/injection, schedule: Q01DX009 (ip), vehicle: water): 110 % of control | T/C (dose: 2.5 mg/kg/injection, schedule: Q01DX009 (ip), vehicle: water): 105 % of control | T/C (dose: 5.0 mg/kg/injection, schedule: Q01DX009 (ip), vehicle: water): 110 % of control | T/C (dose: 10.0 mg/kg/injection, schedule: Q01DX009 (ip), vehicle: water): 110 % of control | T/C (dose: 20.0 mg/kg/injection, schedule: Q01DX009 (ip), vehicle: water): 110 % of control

CC(=O)Nc1c(C)cccc1C
T/C (dose: 25.0 mg/kg/injection, schedule: Q01DX009 (ip), vehicle: Klucel (hydroxypropylcellulose) (HPC)): 93 % of control | T/C [3]: 100 % of control | T/C [4]: 97 % of control | T/C [5]: 103 % of control

N#CSCc1ccc(CSC#N)c(Cl)c1
T/C (dose: 1.56 mg/kg/injection, schedule: Q04DX003 (ip), vehicle: saline sonified): 100 % of control | T/C (dose: 2.08 mg/kg/injection, schedule: Q01DX009 (ip), vehicle: saline with Tween-80): 109 % of control | T/C (dose: 3.13 mg/kg/injection, schedule: Q01DX009 (ip), vehicle: saline with Tween-80): 100 % of control | T/C (dose: 3.13 mg/kg/injection, schedule: Q04DX003 (ip), vehicle: saline sonified): 104 % of control | T/C (dose: 4.69 mg/kg/injection, schedule: Q01DX009 (ip), vehicle: saline with Tween-80): 118 % of control | T/C (dose: 6.25 mg/kg/injection, schedule: Q04DX003 (ip), vehicle: saline sonified): 109 % of control

CC(=O)N1C(=O)CC23c4cccc([N+](=O)[O-])c4C(=O)N2CCCN13 (stereo unspecified)
T/C [15]: 97 % of control | T/C [16]: 97 % of control | T/C [17]: 91 % of control

NC(Cc1cnc[nH]1)C(=O)NO (stereo unspecified)
T/C [6]: 94 % of control | T/C [7]: 102 % of control | T/C [8]: 94 % of control

CCC1(C)CCC(C)(CC)c2c(C)cc(C(C)=O)cc21 (stereo unspecified)
T/C [18]: 114 % of control | T/C [19]: 97 % of control | T/C [20]: 92 % of control

CC(C)(C)c1ccc(OP(=S)(N/N=C/c2ccccc2O)Oc2ccc(C(C)(C)C)cc2)cc1
T/C (dose: 12.5 mg/kg/injection, schedule: Q01DX009 (ip), vehicle: saline with Tween-80): 94 % of control | T/C (dose: 25.0 mg/kg/injection, schedule: Q01DX009 (ip), vehicle: saline with Tween-80): 88 % of control | T/C [12]: 93 % of control and 95 % of control | T/C [13]: 95 % of control | T/C [14]: 95 % of control

CCN(CC)CCN1C(=O)CN=C(c2ccc[nH]2)c2cc(Cl)ccc21
T/C [13]: 90 % of control | T/C [18]: 100 % of control | T/C [19]: 100 % of control | T/C (dose: 400.0 mg/kg/injection, schedule: Q01DX009 (ip), vehicle: saline with Tween-80): 95 % of control | T/C [20]: 95 % of control

O=C(O)C(CS(=O)(=O)O)S(=O)(=O)O (stereo unspecified)
T/C (dose: 7.5 mg/kg/injection, schedule: Q01DX009 (ip), vehicle: saline with Tween-80): 110 % of control | T/C (dose: 15.0 mg/kg/injection, schedule: Q01DX009 (ip), vehicle: saline with Tween-80): 109 % of control | T/C (dose: 30.0 mg/kg/injection, schedule: Q01DX009 (ip), vehicle: saline with Tween-80): 106 % of control

CC1=C(C(N)=O)C(c2ccc([N+](=O)[O-])cc2)NC(=S)N1 (stereo unspecified)
T/C [15]: 92 % of control | T/C [16]: 90 % of control | T/C [17]: 92 % of control
